Assay results reported in patent US5969174A, “Competitive inhibitors of glyoxalase I and method of generating such competitive inhibitors inside tumor cells” (priority 1998, dated 1999).
“Also recorded” adds a separate entry of the source. Read-outs that look alike come from different tables or passages of the source. Blank lines part the entries; values can stand above or below the compound they belong to.

What was measured:
[1] = Acyl-interchange reaction with glutathione in a cell-free system; type: physicochemical; conditions: for k2, second order rate constant for acyl-interchange with glutathione: 50 mM potassium phosphate, pH 7.5, 5% ethanol, 25° C.
Method: In principle, an acyl-interchange reaction might serve as the basis of an improved prodrug strategy, provided that the acylating reagent diffuses rapidly across cell membranes and then reacts rapidly with intracellular glutathione to give the enediol analog. Three N-hydroxycarbamate thioethyl esters (2(a-c)) and the corresponding sulfoxides (3(a-c)) were prepared (FIG. 7) and their rates of acyl-interchange with glutathione in a cell free system evaluated (Table II). Sulfoxidation of N,N-di-n-propylcarbamate thioalkyl esters activates these species for acyl-interchange with glutathione. […] The N--OH function appears to inductively activate the sulfoxides for acyl-interchange, as the rate constant for 3a exceeds that of the corresponding N--CH3 derivative 3c by 13-fold. The products of the interchange reactions were confirmed as the corresponding enediol analogs, on the basis that their UV spectra and their migratory properties on a reverse-phase C18 column were identical with those of authentic samples of enediol analog.
Second order rate constants for the
acyl-interchange reactions between glutathione and the list thioesters
CH3 CH2 XC(O)N(Y)Z + GSG ---(k2)--> GSC(O)B(Y)Z +
Conditions: Potassium phosphate buffer (50 mM), pH 7.5, 5% ethanol, […]

tumor cells = conditions: literature (5-8); cited from earlier work
L1210 cells [2] = test: Growth inhibition / cytotoxicity, murine leukemia L1210 cells in culture; type: cell-based; conditions: for IC50: L1210, 48 h; for greater potency of sulfoxide versus diethyl ester: L1210 cells
[3] = system: B16 melanotic melanoma cells; test: Growth inhibition, B16 melanotic melanoma cells in culture; type: cell-based, murine
Method: As a consequence, they are the strongest competitive inhibitors of human GlxI yet described, Table 1. […] With both cell lines there was some correlation between the Ki values of the enediol analogs and the IC50 values of the corresponding diethyl esters.
^d Sp-bromobenzylglutathione diethyl ester. Cells were incubated for
48 h in RPMI 1640/10% fetal calf serum (37° C.) in the absence and
in the presence of enzyme inhibitor. After the initial addition of
inhibitor at time zero, fresh inhibitor was added every 12 h in order to
compensate partially for the loss of inhibitor due to spontaneous
hydrolytic deethylation in the growth medium.

splenic lymphocytes = test: Toxicity toward nonproliferating splenic lymphocytes; type: cell-based
Excerpt: Conditions: See Table 1. Error bars represent standard deviations for triplicate determinations. Different symbols correspond to experiments carried out on different days.
This is illustrated for 2(Et)2 and S-p-bromobenzylglutathionediethyl ester by the dose-response curves of FIG. 3. […] Therefore, tumor cells might not be able to detoxify the inhibitors as rapidly as normal cells. In order to determine whether this could be a factor in the present study, the glyoxalase activities in both L1210 cells and splenic lymphocytes were determined. Indeed, while the GlxI activities in the two cell lines are nearly equal, the GlxII activity in L1210 cells is about 10-fold lower than that in splenic lymphocytes. The activities of GlxI and GlxII in L1210 cells were respectively 0.31±0.03 U/mg and 0.02±0.003 U/mg, while the activities in splenic lymphocytes were respectively 0.36±0.03U/mg and 0.20±0.03 U/mg.

L1210 cells [4] = test: Cell permeability / intracellular appearance of enediol analog in L1210 cells; type: in vitro ADME, murine
Method: In order to understand the mechanism of intracellular delivery of the enediol analogs, suspensions of L1210 cells were separately incubated with the diacid 2 and with the corresponding diethyl ester 2(Et)2. The rate of appearance of these species in the intracellular fraction was then monitored as a function of time by reverse-phase HPLC (FIG. 4). […] After 90 minutes, the concentration of 2 decreased, possibly due to a combination of factors including (a) 10-20% cell death over the course of the experiment, (b) hydrolytic deethylation of extracellular 2(Et)2, and (c) GlxII-catalyzed decarbamoylation of intracellular 2.
To suspensions of L1210 cells (~1.5(10^6 cells/ml) in RPMI 1640 medium, containing 10% heat-inactivated fetal calf serum, gentamycin (10 μg/ml) and L-glutamate, at 37° C., were added fixed concentrations of 2a. Aliquots (1 ml) were removed from the cell suspension as a function of time, overlaid onto 0.4 ml of silicone oil (SF-1250 silicone fluids, General Electric Co., Silicone Products Division, Waterford, N.Y.) contained in an eppendorf centrifuge tube and centrifuged at 11,000×g (15 min) at 25° C. The supernatant and silicone oil were decanted from the cell pellet and residual oil removed from the inside of the centrifuge tube with a cotton swab. To the pellet was added 1 ml 70% ethanol in water and the suspension sonicated for 5 minutes. The denatured protein was sedimented by centrifugation (11,000×g, 15 min) and the clear supernatant was removed. The supernatant was brought to dryness under a stream of argon, and the resulting residue was fractionated by reverse-phase HPLC (Waters μBondapak C18, 0.78(30 cm), using a mobile phase composed of methanol:water (1:1) containing 0.25% acetic acid at a flow rate of 2 ml/min. The integrated intensity of the peak corresponding S-(N-p-chlorophenyl-N-hydroxycarbamoyl) glutathione was determined at λ=260 nm. Concentrations were extrapolated from standard curves that were linear in the range 0.1 to 4.0 nmoles (r=0.997).

Stability in human serum = type: in vitro ADME
Method: To 0.5 ml portions of either human serum or mouse serum, at 37° C., was added compound 2(Et)2 to an initial concentration of approximately 0.15 mM. As a function of time, 0.1 ml aliquots of the incubation mixture were transferred to separate microfuge tubes. The samples were immediately deproteinized by the addition of 70% ethanol (0.9 ml). After incubation for 30 minutes at 37° C., the protein precipitate was sedimented by centrifugation at […]. The supernatants were then fractionated by reverse-phase HPLC, as described above, and the integrated intensities of the peaks corresponding to 2(Et)2 determined. The rate constants for deethylation were calculated from the first-order rate of loss of 2(Et)2 as a function of time.
To identify a murine model suitable for in vivo testing of the GlxI inhibitors, the stability of 2(Et)2 was evaluated in human serum and in serum samples obtained from different strains of tumor-bearing mice. In human serum, 2(Et)2 undergoes slow first-order hydrolysis to a mixture of diacid and monoethyl esters, as monitored by reverse-phase HPLC (FIG. 6). For serum samples obtained from four different individuals, T1/2 =9.1±5.3 hours (n=4). […]

[5] = Stability in mouse serum/plasma; type: in vitro ADME
human erythrocyte GlxI = conditions: cited from earlier work
[6] = n-octanol/water partition coefficient
HL60 cells [7] = conditions: cited from earlier work
HL60 cells [8] = conditions: literature (15); cited from earlier work
[9] = system: rat adrenal pheochromocytoma PC-12 cells; conditions: literature (26); read-out: IC50, growth of PC-12 cells; cited from earlier work
L1210 cells [10] = test: Cell permeability / intracellular appearance of enediol analog in L1210 cells; type: in vitro ADME, murine; remark: listed apart in the source

Structure (SMILES): CC[S+]([O-])C(=O)N(C)O (stereo not shown) [Compound 3b]
rate constant relative to thioester 2a [1]: exceed by several-fold that with the thioester 2 a
k2, second order rate constant for acyl-interchange with glutathione [1]: 9.83 ± 0.33 M⁻¹ s⁻¹

Structure (SMILES): CC(=O)C=O [methylglyoxal]
inhibition of tumor cells by exogenous methylglyoxal (tumor cells): selective inhibitory activity toward rapidly proliferating tumor cells versus nonproliferating normal cells in vitro; also recorded: inhibit the growth of tumor cells in tissue culture

Structure (SMILES): CCOC(=O)CNC(=O)[C@H](CSC(=O)N(O)c1ccc(Cl)cc1)NC(=O)CC[C@H](N)C(=O)OCC [2(Et)2, S-(N-p-chlorophenyl N-hydroxycarbamoyl) glutathione diethyl ester]
growth inhibition / cytotoxicity in words, L1210 (L1210 cells [2]; L1210 cells in vitro): inhibited the growth
cytotoxicity at 100 µM (L1210 cells [2]; Mus musculus, L1210, 48 h, 100 μM, read-out: killing of L1210 cells): ~100%
IC50 (L1210 cells [2]; Mus musculus, RPMI 1640/10% fetal calf serum, 37° C., fresh inhibitor every 12 h, mean ± SD, read-out: IC50, 50% growth inhibition, L1210): 9.5 ± 3.8 µM
growth inhibition / cytotoxicity in words, B16 ([3]; B16 cells in vitro): inhibited the growth
IC50 ([3]; Mus musculus, 48 h, RPMI 1640/10% fetal calf serum, 37° C., fresh inhibitor every 12 h, mean ± SD, read-out: IC50, 50% growth inhibition, B16): 28 ± 7 µM
decrease in viability of splenic lymphocytes (splenic lymphocytes; 100 μM): less than 50%
toxicity to splenic lymphocytes / selectivity in words (splenic lymphocytes; L1210 cells versus splenic lymphocytes): significantly more toxic to L1210 cells than to splenic lymphocytes
intracellular uptake in words (L1210 cells [4]; L1210 cells): rapid increase in intracellular [2] during the first 90 min; also recorded: linear function of extracellular [2(Et)2 ] in the range 0.01 to 1.0 mM; also recorded: Only trace amounts of the monoethyl esters and diethyl ester of 2 were found in the intracellular fractions; also recorded: high intracellular concentrations of the corresponding diacid 2
maximum concentration of 2 inside cells versus extracellular concentration of 2(Et)2 (L1210 cells [4]; exceeds extracellular): about three-fold
apparent first order rate constant for diffusion of diethyl ester into L1210 cells (L1210 cells [4]; in vitro, 37° C.): 0.04 min⁻¹
first order rate constant for appearance of 2 inside L1210 cells (L1210 cells [4]; incubated in the presence of 2(Et)2): 2.2 h⁻¹
first order rate constant for deethylation in human serum (Stability in human serum; 37° C., FIG. 6): 0.147 ± 0.015 h⁻¹
half-life at 150 µM (Stability in human serum; human, serum, n=4, read-out: T1/2 in human serum (converted)): 9.1 ± 5.3 h
half-life at 150 µM ([5]; mouse, serum, DBA/2(C57BL/6 mice, n=5, read-out: T1/2 in serum of plasma esterase-deficient mice (converted)): 3.9 ± 0.6 h
half-life at 150 µM ([5]; mouse, serum, DBA/2, C57BL/6, NCr nu/nu and CD2 F1 mice, read-out: T1/2, deethylation in mouse serum): < 0.00833 h
Ki (human erythrocyte GlxI; of the unethylated species with human erythrocyte GlxI (17), read-out: Ki, competitive inhibition constant): 0.046 µM
logP [6]: 0.996

Structure (SMILES): N[C@@H](CCC(=O)N[C@@H](CSCc1ccc(Br)cc1)C(=O)NCC(=O)OC1CCCC1)C(=O)OC1CCCC1 [dicyclopentyl ester of S-p-bromobenzylglutathione]
potency relative to the diethyl ester, HL60 (HL60 cells [7]; literature (14)): twice as potent as the diethyl ester
concentration of intracellular methylglyoxal (HL60 cells [8]): increased the measured concentration of intracellular methylglyoxal

Structure (SMILES): C[C@@H](O)C(=O)SC[C@H](NC(=O)CC[C@H](N)C(=O)O)C(=O)NCC(=O)O [S-D-lactoylglutathione]
growth of HL60 cells (HL60 cells [7]; literature (25)): inhibits the growth of HL60 cells in culture

Structure (SMILES): CC(C)OC(=O)CNC(=O)[C@H](CSC(=O)OCC1c2ccccc2-c2ccccc21)NC(=O)CC[C@H](N)C(=O)OC(C)C [S-fluorenylmethoxycarbonyl glutathionediisopropyl ester]
IC50 [9]: 275 µM

apparent first order rate constant for appearance of enediol analog inside the cells on incubation with sulfoxide (L1210 cells [4]): 1.41±0.03 min^-1
maximum intracellular concentration of inhibitor versus extracellular concentration of sulfoxide (L1210 cells [4]): about 10 -fold
rate of influx of sulfoxide relative to diethyl ester 1(Et)2 (L1210 cells [4]): 35 -fold
time to maximum intracellular concentration of inhibitor (L1210 cells [4]): about 17 minutes
first order rate constant for loss of sulfoxide from serum ([5]; DBA/2 mice, n=3): 0.06 ± 0.01 min⁻¹
half-life ([5]; mouse, serum, DBA/2 mice, n=3, read-out: T1/2 of sulfoxide in serum): 0.217 ± 0.0333 h
Structure (SMILES): CC[S+]([O-])C(=O)N(O)c1ccc(Cl)cc1 (stereo not drawn) [Compound 3a, S-(N-Hydroxy-N-p-chlorophenylcarbamoyl)ethyl sulfoxide]
greater potency of sulfoxide versus diethyl ester (L1210 cells [2]): 10 -fold
greater potency of sulfoxide versus diethyl ester (L1210 cells [2]; listed as S-(N-p-chlorophenyl-N-hydroxycarbamoyl)ethylsulfoxide): about 10 -fold
IC50 (L1210 cells [2]; Mus musculus, fresh drug every 12 h, read-out: IC50 toward L1210 cells, sulfoxide): 0.8 ± 0.5 µM
intracellular uptake in words (L1210 cells [4]): rapid increase in the intracellular concentration of the corresponding enediol analog
rate constant relative to thioester 2a [1]: exceed by several-fold that with the thioester 2 a
k2, second order rate constant for acyl-interchange with glutathione [1]: 30.7 ± 1.2 M⁻¹ s⁻¹
second order rate constant for acyl-interchange reaction ([1]; 100 mM potassium phosphate, 5% ethanol, pH 7.5, 25° C.): 30.7 M⁻¹ s⁻¹
rate constant relative to N--CH3 derivative 3c ([1]; exceeds): 13 -fold
reduction of intracellular glutathione concentration (L1210 cells [10]): less than 1%

Structure (SMILES): N[C@@H](CCC(=O)N[C@@H](CSC(=O)N(O)c1ccc(Cl)cc1)C(=O)NCC(=O)O)C(=O)O [Compound 2, S-(N-p-chlorophenyl N-hydroxycarbamoyl)glutathione]
intracellular uptake in words (L1210 cells [4]; L1210 cells): no significant time-dependent increase in intracellular [2]
Ki (human erythrocyte GlxI; FIG. 8, read-out: Ki, tight-binding competitive inhibitor of human glyoxalase I): 0.046 µM
logP [6]: < -2

Structure (SMILES): N[C@@H](CCC(=O)N[C@@H](CSCc1ccc(Br)cc1)C(=O)NCC(=O)O)C(=O)O [S-p-bromobenzylglutathione]
effect on human leukemia HL60 cells (HL60 cells [7]; literature): both cytostatic and cytotoxic to these cells
